From paper PMC6915728 (Nature Communications, 2019)
Read-outs that look alike come from different tables or passages of the source.

Tests used:
[1] = tested on: E. coli BW25113 overexpression strains (ASKA plasmids); assay: Minimum inhibitory concentration (MIC), serial broth dilution, single-gene overexpression strains vs empty-vector control; format: cell-based, Escherichia coli; settings: broth dilution, MS medium, 100 µM IPTG, 30 °C, 20-24 h, OD600, 3 replicates
Experimental: Minimum inhibitory concentrations (MIC) were determined with a standard serial broth dilution technique with a minor modification. Specifically, instead of a two-fold dilution series, smaller AMP concentration steps were used (typically 1.2-fold) for two reasons. […] Second, gene overexpressions caused typically only small changes in the MICs of AMPs and therefore higher resolution was required. The protocol was as follows. From a stock solution of an AMP, 12-steps serial dilution was prepared in fresh MS medium in 96-well microtiter plates. Each AMP was represented in 11 different concentrations (3 wells per AMP concentration per strain). Three wells contained only medium to check the growth in the absence of AMP. After overnight growth in MS medium supplemented with chloramphenicol, bacterial strains were diluted 20-fold into fresh MS medium and grown until the cell density reached OD600 ~1. Cells were induced by 100 µM of IPTG and incubated for 1 h at 30 °C with continuous shaking at 300 rpm. Following incubation, approximately half-million cells were inoculated into the wells of the 96-well microtiter plate with a 96‐pin replicator. We used three independent replicates for each strain and the corresponding control. Two rows in the 96-well plate contained only MS medium in order to obtain the background OD value of the medium. Plates were incubated at 30 °C with continuous shaking at 300 rpm. After 20–24 h of incubation, OD600 values were measured in a microplate reader (Biotek Synergy 2).

[2] = tested on: AMP-evolved E. coli lines; settings: ref Spohn et al 2019, cited from earlier work
Source text: Supplement 41467_2019_13618_MOESM13_ESM.xlsx, sheet "Figure 6 and S15" | column: A comprehensive dataset of antimicrobial susceptibility of AMP-adapted lines to antimicrobial peptides (AMPs).

[3] = tested on: E. coli; settings: previous laboratory evolution experiment; cited from earlier work
Source text: The results presented in this study may have important implications for the development of AMP-based therapies. Previous works reported several instances of cross-resistance interactions between membrane-targeting peptides (Supplementary Data 1), however, the potential for cross-resistance across AMPs with different modes of action has remained poorly understood. Specifically, while cross-resistance between host and therapeutic AMPs is certainly a realistic danger, not all AMPs are equally prone to cross-resistance. Given the immense diversity of AMPs with major differences in physicochemical ...

[4] = tested on: bacterial membrane; settings: literature mining; ref superscript numbers in the cell, listed in Supplementary Data 7 sheet References; cited from earlier work
Source text: Supplement 41467_2019_13618_MOESM10_ESM.xlsx, sheet "AMP details" | column: Pore formation

**Q.** Which results are given for “FLGKVFKLASKVFKAVFGKV [R8, synthetic AMP (from linguistic model); cluster C1]”?
**A.** Relative MIC ([1]; overexpression strain mlaD, MIC of the overexpression strain / MIC of the control strain (wild-type carrying the empty plasmid)): 1; Relative MIC ([1]; overexpression strain mzrA, MIC of overexpression strain / MIC of empty-plasmid control): 1.3; Relative MIC ([1]; overexpression strain yhbJ, MIC of overexpression strain / MIC of empty-plasmid control): 1; Relative change in MIC (MIC of the AMP-adpated line / MIC of the ancestral strain) ([2]; AMP-adapted line BAC5_3): 1; Relative change in MIC (MIC of the AMP-adpated line / MIC of the ancestral strain) ([2]; AMP-adapted line BAC5_5): 1; Relative change in MIC (MIC of the AMP-adpated line / MIC of the ancestral strain) ([2]; AMP-adapted line BAC5_7): 1.1; Relative change in MIC (MIC of the AMP-adpated line / MIC of the ancestral strain) ([2]; AMP-adapted line BAC5_10): 1.1; Relative change in MIC (MIC of the AMP-adpated line / MIC of the ancestral strain) ([2]; AMP-adapted line CAP18_2): 1.2; Relative change in MIC (MIC of the AMP-adpated line / MIC of the ancestral strain) ([2]; AMP-adapted line CAP18_5): 1.1; Relative change in MIC (MIC of the AMP-adpated line / MIC of the ancestral strain) ([2]; AMP-adapted line CAP18_6): 1; Relative change in MIC (MIC of the AMP-adpated line / MIC of the ancestral strain) ([2]; AMP-adapted line CAP18_8): 1.1; Relative change in MIC (MIC of the AMP-adpated line / MIC of the ancestral strain) ([2]; AMP-adapted line CAP18_10): 1.2; Relative change in MIC (MIC of the AMP-adpated line / MIC of the ancestral strain) ([2]; AMP-adapted line HBD3_3): 1; Relative change in MIC (MIC of the AMP-adpated line / MIC of the ancestral strain) ([2]; AMP-adapted line HBD3_6): 1.2; Relative change in MIC (MIC of the AMP-adpated line / MIC of the ancestral strain) ([2]; AMP-adapted line HBD3_8): 1; Relative change in MIC (MIC of the AMP-adpated line / MIC of the ancestral strain) ([2]; AMP-adapted line HBD3_10): 1; Relative change in MIC (MIC of the AMP-adpated line / MIC of the ancestral strain) ([2]; AMP-adapted line LL37_1): 1.2; Relative change in MIC (MIC of the AMP-adpated line / MIC of the ancestral strain) ([2]; AMP-adapted line LL37_3): 1.2; Relative change in MIC (MIC of the AMP-adpated line / MIC of the ancestral strain) ([2]; AMP-adapted line LL37_6): 1; Relative change in MIC (MIC of the AMP-adpated line / MIC of the ancestral strain) ([2]; AMP-adapted line LL37_7): 1.1; Relative change in MIC (MIC of the AMP-adpated line / MIC of the ancestral strain) ([2]; AMP-adapted line LL37_10): 1.2; Relative change in MIC (MIC of the AMP-adpated line / MIC of the ancestral strain) ([2]; AMP-adapted line PEX_1): 1.1; Relative change in MIC (MIC of the AMP-adpated line / MIC of the ancestral strain) ([2]; AMP-adapted line PEX_4): 1.2; Relative change in MIC (MIC of the AMP-adpated line / MIC of the ancestral strain) ([2]; AMP-adapted line PEX_5): 1.1; Relative change in MIC (MIC of the AMP-adpated line / MIC of the ancestral strain) ([2]; AMP-adapted line PEX_6): 1; Relative change in MIC (MIC of the AMP-adpated line / MIC of the ancestral strain) ([2]; AMP-adapted line PEX_7): 1.2; Relative change in MIC (MIC of the AMP-adpated line / MIC of the ancestral strain) ([2]; AMP-adapted line PR39_1): 1.1; Relative change in MIC (MIC of the AMP-adpated line / MIC of the ancestral strain) ([2]; AMP-adapted line PR39_2): 1; Relative change in MIC (MIC of the AMP-adpated line / MIC of the ancestral strain) ([2]; AMP-adapted line PR39_5): 1; Relative change in MIC (MIC of the AMP-adpated line / MIC of the ancestral strain) ([2]; AMP-adapted line PR39_7): 1; Relative change in MIC (MIC of the AMP-adpated line / MIC of the ancestral strain) ([2]; AMP-adapted line PR39_10): 1; Relative change in MIC (MIC of the AMP-adpated line / MIC of the ancestral strain) ([2]; AMP-adapted line PROA_2): 1; Relative change in MIC (MIC of the AMP-adpated line / MIC of the ancestral strain) ([2]; AMP-adapted line PROA_3): 1; Relative change in MIC (MIC of the AMP-adpated line / MIC of the ancestral strain) ([2]; AMP-adapted line PROA_7): 1; Relative change in MIC (MIC of the AMP-adpated line / MIC of the ancestral strain) ([2]; AMP-adapted line PROA_8): 1; Relative change in MIC (MIC of the AMP-adpated line / MIC of the ancestral strain) ([2]; AMP-adapted line PROA_9): 1; Relative change in MIC (MIC of the AMP-adpated line / MIC of the ancestral strain) ([2]; AMP-adapted line PXB_2): 1; Relative change in MIC (MIC of the AMP-adpated line / MIC of the ancestral strain) ([2]; AMP-adapted line PXB_5): 1.7; Relative change in MIC (MIC of the AMP-adpated line / MIC of the ancestral strain) ([2]; AMP-adapted line PXB_6): 1.9; Relative change in MIC (MIC of the AMP-adpated line / MIC of the ancestral strain) ([2]; AMP-adapted line PXB_8): 1.9; Relative change in MIC (MIC of the AMP-adpated line / MIC of the ancestral strain) ([2]; AMP-adapted line PXB_10): 1.2; Emergence of resistant lines in laboratory evolution [3]: did not result in any significant resistant lines

**Q.** What does the source list for “SWLSKTAKKLENSAKKRISEGIAIAIQGGPR [CP1, Cecropin P1, antimicrobial peptide, source Ascaris suum; disrupts cell membrane; cluster C1]”?
**A.** Relative MIC ([1]; overexpression strain nikB, MIC of overexpression strain / MIC of empty-plasmid control): 0.8; Relative MIC ([1]; overexpression strain ptsN, MIC of overexpression strain / MIC of empty-plasmid control): 0.76; Relative MIC ([1]; overexpression strain yiaJ, MIC of overexpression strain / MIC of empty-plasmid control): 0.8; Relative change in MIC (MIC of the AMP-adpated line / MIC of the ancestral strain) ([2]; AMP-adapted line BAC5_3): 1.1; Relative change in MIC (MIC of the AMP-adpated line / MIC of the ancestral strain) ([2]; AMP-adapted line BAC5_5): 1.2; Relative change in MIC (MIC of the AMP-adpated line / MIC of the ancestral strain) ([2]; AMP-adapted line BAC5_7): 1; Relative change in MIC (MIC of the AMP-adpated line / MIC of the ancestral strain) ([2]; AMP-adapted line BAC5_10): 1; Relative change in MIC (MIC of the AMP-adpated line / MIC of the ancestral strain) ([2]; AMP-adapted line CAP18_2): 1; Relative change in MIC (MIC of the AMP-adpated line / MIC of the ancestral strain) ([2]; AMP-adapted line CAP18_5): 1.2; Relative change in MIC (MIC of the AMP-adpated line / MIC of the ancestral strain) ([2]; AMP-adapted line CAP18_6): 1; Relative change in MIC (MIC of the AMP-adpated line / MIC of the ancestral strain) ([2]; AMP-adapted line CAP18_8): 1; Relative change in MIC (MIC of the AMP-adpated line / MIC of the ancestral strain) ([2]; AMP-adapted line CAP18_10): 1; Relative change in MIC (MIC of the AMP-adpated line / MIC of the ancestral strain) ([2]; AMP-adapted line HBD3_3): 1.1; Relative change in MIC (MIC of the AMP-adpated line / MIC of the ancestral strain) ([2]; AMP-adapted line HBD3_6): 1.1; Relative change in MIC (MIC of the AMP-adpated line / MIC of the ancestral strain) ([2]; AMP-adapted line HBD3_8): 1.2; Relative change in MIC (MIC of the AMP-adpated line / MIC of the ancestral strain) ([2]; AMP-adapted line HBD3_10): 1.2; Relative change in MIC (MIC of the AMP-adpated line / MIC of the ancestral strain) ([2]; AMP-adapted line LL37_1): 0.8; Relative change in MIC (MIC of the AMP-adpated line / MIC of the ancestral strain) ([2]; AMP-adapted line LL37_3): 1; Relative change in MIC (MIC of the AMP-adpated line / MIC of the ancestral strain) ([2]; AMP-adapted line LL37_6): 0.9; Relative change in MIC (MIC of the AMP-adpated line / MIC of the ancestral strain) ([2]; AMP-adapted line LL37_7): 1.1; Relative change in MIC (MIC of the AMP-adpated line / MIC of the ancestral strain) ([2]; AMP-adapted line LL37_10): 0.9; Relative change in MIC (MIC of the AMP-adpated line / MIC of the ancestral strain) ([2]; AMP-adapted line PEX_1): 1.1; Relative change in MIC (MIC of the AMP-adpated line / MIC of the ancestral strain) ([2]; AMP-adapted line PEX_4): 1.2; Relative change in MIC (MIC of the AMP-adpated line / MIC of the ancestral strain) ([2]; AMP-adapted line PEX_5): 1.1; Relative change in MIC (MIC of the AMP-adpated line / MIC of the ancestral strain) ([2]; AMP-adapted line PEX_6): 1; Relative change in MIC (MIC of the AMP-adpated line / MIC of the ancestral strain) ([2]; AMP-adapted line PEX_7): 1.3; Relative change in MIC (MIC of the AMP-adpated line / MIC of the ancestral strain) ([2]; AMP-adapted line PR39_1): 1.1; Relative change in MIC (MIC of the AMP-adpated line / MIC of the ancestral strain) ([2]; AMP-adapted line PR39_2): 1.1; Relative change in MIC (MIC of the AMP-adpated line / MIC of the ancestral strain) ([2]; AMP-adapted line PR39_5): 1; Relative change in MIC (MIC of the AMP-adpated line / MIC of the ancestral strain) ([2]; AMP-adapted line PR39_7): 1; Relative change in MIC (MIC of the AMP-adpated line / MIC of the ancestral strain) ([2]; AMP-adapted line PR39_10): 0.8; Relative change in MIC (MIC of the AMP-adpated line / MIC of the ancestral strain) ([2]; AMP-adapted line PROA_2): 1.1; Relative change in MIC (MIC of the AMP-adpated line / MIC of the ancestral strain) ([2]; AMP-adapted line PROA_3): 0.9; Relative change in MIC (MIC of the AMP-adpated line / MIC of the ancestral strain) ([2]; AMP-adapted line PROA_7): 0.8; Relative change in MIC (MIC of the AMP-adpated line / MIC of the ancestral strain) ([2]; AMP-adapted line PROA_8): 0.9; Relative change in MIC (MIC of the AMP-adpated line / MIC of the ancestral strain) ([2]; AMP-adapted line PROA_9): 1.1; Relative change in MIC (MIC of the AMP-adpated line / MIC of the ancestral strain) ([2]; AMP-adapted line PXB_2): 1.3; Relative change in MIC (MIC of the AMP-adpated line / MIC of the ancestral strain) ([2]; AMP-adapted line PXB_5): 1; Relative change in MIC (MIC of the AMP-adpated line / MIC of the ancestral strain) ([2]; AMP-adapted line PXB_6): 1.2; Relative change in MIC (MIC of the AMP-adpated line / MIC of the ancestral strain) ([2]; AMP-adapted line PXB_8): 1.1; Relative change in MIC (MIC of the AMP-adpated line / MIC of the ancestral strain) ([2]; AMP-adapted line PXB_10): 1.2; Pore formation (whether AMP makes pores in the bacterial membrane) [4]: Yes6-8; Emergence of resistant lines in laboratory evolution [3]: did not result in any significant resistant lines
